19 molecules from ChEMBL document CHEMBL2413059, “Novel quinoxaline 1,4-di-N-oxide derivatives as new potential antichagasic agents” (Eur J Med Chem, 2013) can be followed below.

The term IC50 denotes the midpoint of a concentration-inhibition curve.

Molecules are shown by their SMILES. Some results are limits rather than exact numbers.

The subject of series [1] is Salmonella typhimurium. Description: Mutagenicity in Salmonella typhimurium TA98 at 0.06 to 5 ug/plate after 1 hr by Ames test in presence of S9 fraction. It is filed as toxicity, organism-based. Particulars: salmonella enterica subsp. enterica serovar typhimurium, s9, 1 h. In general terms: The Ames test detects mutagens through reverse mutation in bacteria.
Series [2] relates to Salmonella typhimurium. Description: Mutagenicity in Salmonella typhimurium TA98 at 0.06 to 5 ug/plate after 1 hr by Ames test in absence of S9 fraction. It is filed as toxicity, organism-based. The note with it: salmonella enterica subsp. enterica serovar typhimurium.
Series [3] can be described thus: Selectivity index, ratio of IC50 for mouse J774 cells to IC50 for epimastigote form of Trypanosoma cruzi Tulahuen 2. It is filed as toxicity, cell-based. Particulars: read-out: Ratio IC50.
The subject of the next series is J774. Description: Cytotoxicity against mouse J774 cells assessed as cell viability after 48 hrs by MTT assay. It is filed as cell-based. Particulars: J774, 48 h.
The test system of series [4] is Trypanosoma cruzi. Description: Ratio of nifurtimox IC50 to compound IC50 for epimastigote form of Trypanosoma cruzi Tulahuen 2. It counts as functional.
Series [5] deals with Trypanosoma cruzi. Description: Antichagasic activity against epimastigote form of Trypanosoma cruzi Tulahuen 2 assessed as parasite growth inhibition measured on day 5. It is filed as functional, organism-based. The note with it: Tulahuen 2, 120 h.
The test system of series [6] is Trypanosoma cruzi. Description: Antichagasic activity against epimastigote form of Trypanosoma cruzi Tulahuen 2 assessed as parasite growth inhibition at 25 uM measured on day 5 relative to control. It counts as functional. The note with it: Tulahuen 2, 120 h, read-out: GI.
The test system of series [7] is Salmonella typhimurium. Description: Mutagenicity in Salmonella typhimurium TA98 at 0.06 to 12.5 ug/plate after 1 hr by Ames test in presence of S9 fraction. The note with it: salmonella enterica subsp. enterica serovar typhimurium, s9, 1 h. It is filed as toxicity, organism-based.
The test system of series [8] is Salmonella typhimurium. Nature of the series: Mutagenicity in Salmonella typhimurium TA98 at 0.06 to 12.5 ug/plate after 1 hr by Ames test in absence of S9 fraction. It is filed as toxicity, organism-based. Particulars: salmonella enterica subsp. enterica serovar typhimurium.
Series [9] relates to Salmonella typhimurium. Nature of the series: Mutagenicity in Salmonella typhimurium TA98 at 0.3 to 25 ug/plate after 1 hr by Ames test in presence of S9 fraction. The note with it: salmonella enterica subsp. enterica serovar typhimurium, s9, 1 h. It is filed as toxicity, organism-based.
Series [10] concerns Salmonella typhimurium. Description: Mutagenicity in Salmonella typhimurium TA98 at 0.3 to 25 ug/plate after 1 hr by Ames test in absence of S9 fraction. It is filed as toxicity, organism-based. The note with it: salmonella enterica subsp. enterica serovar typhimurium.
The subject of series [11] is Salmonella typhimurium. Nature of the series: Mutagenicity in Salmonella typhimurium TA98 at 0.61 to 50 ug/plate after 1 hr by Ames test in presence of S9 fraction. It is filed as toxicity, organism-based. Particulars: salmonella enterica subsp. enterica serovar typhimurium, s9, 1 h.
Series [12] relates to Salmonella typhimurium. Description: Mutagenicity in Salmonella typhimurium TA98 at 0.61 to 50 ug/plate after 1 hr by Ames test in absence of S9 fraction. The note with it: salmonella enterica subsp. enterica serovar typhimurium. It is filed as toxicity, organism-based.
In series [13] the test system is Salmonella typhimurium. Nature of the series: Mutagenicity in Salmonella typhimurium TA98 at 1.2 X 10^-3 to 5 ug/plate after 1 hr by Ames test in presence of S9 fraction. The note with it: salmonella enterica subsp. enterica serovar typhimurium, s9, 1 h. It counts as toxicity, organism-based.
The subject of series [14] is Salmonella typhimurium. Nature of the series: Mutagenicity in Salmonella typhimurium TA98 at 1.2 X 10^-3 to 5 ug/plate after 1 hr by Ames test in absence of S9 fraction. It is filed as toxicity, organism-based. The note with it: salmonella enterica subsp. enterica serovar typhimurium.
Series [15] deals with Salmonella typhimurium. Nature of the series: Mutagenicity in Salmonella typhimurium TA98 at 0.012 to 1 ug/plate after 1 hr by Ames test in presence of S9 fraction. It counts as toxicity, organism-based. Particulars: salmonella enterica subsp. enterica serovar typhimurium, s9, 1 h.
Series [16] relates to Salmonella typhimurium. Nature of the series: Mutagenicity in Salmonella typhimurium TA98 at 0.012 to 1 ug/plate after 1 hr by Ames test in absence of S9 fraction. It counts as toxicity, organism-based. The note with it: salmonella enterica subsp. enterica serovar typhimurium.

With `CCOC(=O)c1c(C(F)(F)F)[n+]([O-])c2cc(F)c(F)cc2[n+]1[O-]`, the values for the Activity result in the series on Salmonella typhimurium [1] and with Salmonella typhimurium [2] were “Non-toxic” and “Toxic”, respectively. For the same molecule, the selectivity ratio in series [3] is 10. The figures for the IC50 in the series with J774 and with Trypanosoma cruzi [5] were 4 µM and 0.4 µM, respectively. Further, the “Ratio IC50” value with Trypanosoma cruzi [4] stood at 18. For the same molecule, the inhibition of growth at 25 µM in the series on Trypanosoma cruzi [6] was found to be 100%.

For the molecule `CCOC(=O)c1c(C(F)(F)F)[n+]([O-])c2ccc(C(F)(F)F)cc2[n+]1[O-]`, the Activity result in the series on Salmonella typhimurium [7] and in the series with Salmonella typhimurium [8] was “Non-toxic” throughout. The selectivity ratio in series [3] worked out at 4.2. The IC50 was 4.2 µM in the series on J774 and 1 µM with Trypanosoma cruzi [5]. In addition, the inhibition of growth at 25 µM in the series on Trypanosoma cruzi [6] turned out to be 100%.

For the molecule `COC(=O)c1c(C(F)(F)F)[n+]([O-])c2ccccc2[n+]1[O-]`, the Activity entry with Salmonella typhimurium [1] and in the series on Salmonella typhimurium [2] was “Toxic” each time. Besides, the selectivity ratio in [3] came to 7.3. Also, the IC50 in the series with J774 stood at 19 µM; with Trypanosoma cruzi [5], 2.6 µM. For the same molecule, in the series with Trypanosoma cruzi [6], the inhibition of growth at 25 µM came out at 100%.

On to `COC(=O)c1c(C(F)(F)F)[n+]([O-])c2ccc(OC)cc2[n+]1[O-]`, for which the Activity result in the series on Salmonella typhimurium [9] and in the series on Salmonella typhimurium [10] was “Toxic” throughout. The IC50 in the series with Trypanosoma cruzi [5] stood at 4.6 µM. Besides, the inhibition of growth at 25 µM in the series on Trypanosoma cruzi [6] turned out to be 86.6%.

For `COC(=O)c1c(C(F)(F)F)[n+]([O-])c2ccc(C)cc2[n+]1[O-]`, the Activity entry in the series with Salmonella typhimurium [1] and with Salmonella typhimurium [2] was “Toxic” in each case. In addition, the selectivity ratio in [3] was determined as 0.3. Besides, the IC50 in the series with J774 amounted to 4 µM; in the series with Trypanosoma cruzi [5] it was 13.7 µM. Also, the inhibition of growth at 25 µM in the series on Trypanosoma cruzi [6] came out at 96.1%.

In the case of `COC(=O)c1c(C(F)(F)F)[n+]([O-])c2cc(C)c(C)cc2[n+]1[O-]`, the Activity entry with Salmonella typhimurium [11] and with Salmonella typhimurium [12] was “Toxic” each time. Also, in series [3], the selectivity ratio turned out to be 0.8. Further, the IC50 was determined as 4 µM in the series with J774 and 5 µM with Trypanosoma cruzi [5]. In addition, the inhibition of growth at 25 µM with Trypanosoma cruzi [6] stood at 91.6%.

In the case of `COC(=O)c1c(C(F)(F)F)[n+]([O-])c2ccc(Cl)cc2[n+]1[O-]`, the Activity entry is “Non-toxic” in the series on Salmonella typhimurium [13] and “Toxic” in the series on Salmonella typhimurium [14]. Moreover, the half-maximal inhibitory concentration (IC50) in the series with Trypanosoma cruzi [5] was determined as 1.8 µM. For the same molecule, in the series with Trypanosoma cruzi [6], the inhibition of growth at 25 µM amounted to 100%.

In the case of `COC(=O)c1c(C(F)(F)F)[n+]([O-])c2cc(Cl)c(Cl)cc2[n+]1[O-]`, the Activity result with Salmonella typhimurium [15] and with Salmonella typhimurium [16] was “Non-toxic” in each case. The selectivity ratio in [3] is less than 0.1. Moreover, the 50% inhibitory concentration (IC50) was found to be 0.5 µM in the series with J774 and 10.8 µM in the series on Trypanosoma cruzi [5]. Moreover, in the series with Trypanosoma cruzi [6], the inhibition of growth at 25 µM came out at 100%.

`COC(=O)c1c(C(F)(F)F)[n+]([O-])c2ccc(F)cc2[n+]1[O-]`: the Activity result is reported as “Non-toxic” with Salmonella typhimurium [9] and “Toxic” in the series on Salmonella typhimurium [10]. The selectivity ratio in [3] turned out to be 0.7. The concentration for half-maximal inhibition (IC50) is 2.5 µM with J774 and 3.5 µM in the series with Trypanosoma cruzi [5]. The inhibition of growth at 25 µM in the series with Trypanosoma cruzi [6] amounted to 100%.

For `COC(=O)c1c(C(F)(F)F)[n+]([O-])c2cc(F)c(F)cc2[n+]1[O-]`, the values for the Activity entry in the series with Salmonella typhimurium [1] and with Salmonella typhimurium [2] were “Non-toxic” and “Toxic”, respectively. In the series with Trypanosoma cruzi [5], the IC50 was 1.5 µM. In the series with Trypanosoma cruzi [6], the inhibition of growth at 25 µM stood at 100%.

`COC(=O)c1c(C(F)(F)F)[n+]([O-])c2ccc(C(F)(F)F)cc2[n+]1[O-]`: the Activity result in the series on Salmonella typhimurium [1] and in the series with Salmonella typhimurium [2] was “Non-toxic” each time. The selectivity ratio in series [3] was determined as 0.8. In addition, the IC50 in the series with J774 turned out to be 4 µM; with Trypanosoma cruzi [5], 5 µM. Moreover, in the series on Trypanosoma cruzi [6], the inhibition of growth at 25 µM came out at 100%.

Take `CCOC(=O)c1c(C(F)(F)F)[n+]([O-])c2ccccc2[n+]1[O-]`: the Activity entry with Salmonella typhimurium [1] is “Non-toxic”; in the series with Salmonella typhimurium [2], “Toxic”. The selectivity ratio in series [3] stood at 1. The IC50 in the series with J774 and in the series on Trypanosoma cruzi [5] was 4 µM each time. Besides, the inhibition of growth at 25 µM in the series with Trypanosoma cruzi [6] came out at 100%.

Consider `CCOC(=O)c1c(C(F)(F)F)[n+]([O-])c2ccc(OC)cc2[n+]1[O-]`, for which the Activity entry in the series on Salmonella typhimurium [9] and in the series on Salmonella typhimurium [10] was “Toxic” throughout. Moreover, the selectivity ratio in [3] stood at 1.2. Also, the values for the IC50 in the series on J774 and in the series on Trypanosoma cruzi [5] were 6 µM and 4.8 µM, respectively. The inhibition of growth at 25 µM in the series with Trypanosoma cruzi [6] turned out to be 100%.

On to `CCOC(=O)c1c(C(F)(F)F)[n+]([O-])c2ccc(C)cc2[n+]1[O-]`, for which the Activity entry is “Non-toxic” in the series with Salmonella typhimurium [9] and “Toxic” in the series with Salmonella typhimurium [10]. Also, the selectivity ratio in [3] is 1.4. The IC50 in the series on J774 worked out at 7 µM; in the series on Trypanosoma cruzi [5] it was 4.8 µM. Besides, the inhibition of growth at 25 µM in the series with Trypanosoma cruzi [6] amounted to 100%.

Consider `CCOC(=O)c1c(C(F)(F)F)[n+]([O-])c2cc(C)c(C)cc2[n+]1[O-]`, for which the Activity result in the series with Salmonella typhimurium [7] is “Non-toxic”; in the series with Salmonella typhimurium [8] it was “Toxic”. Besides, the selectivity ratio in series [3] was determined as 0.5. Besides, the IC50 in the series with J774 amounted to 4 µM; in the series on Trypanosoma cruzi [5], 7.6 µM. Moreover, the inhibition of growth at 25 µM with Trypanosoma cruzi [6] is 87.5%.

For the molecule `CCOC(=O)c1c(C(F)(F)F)[n+]([O-])c2ccc(Cl)cc2[n+]1[O-]`, the Activity entry is “Non-toxic” with Salmonella typhimurium [1] and “Toxic” with Salmonella typhimurium [2]. Further, the 50% inhibitory concentration (IC50) in the series on Trypanosoma cruzi [5] stood at 1.8 µM. The inhibition of growth at 25 µM with Trypanosoma cruzi [6] worked out at 100%.

As for `CCOC(=O)c1c(C(F)(F)F)[n+]([O-])c2cc(Cl)c(Cl)cc2[n+]1[O-]`, the Activity result in the series on Salmonella typhimurium [1] and in the series with Salmonella typhimurium [2] was “Non-toxic” throughout. For the same molecule, the IC50 in the series on Trypanosoma cruzi [5] worked out at 2.9 µM. Also, the inhibition of growth at 25 µM in the series on Trypanosoma cruzi [6] was found to be 100%.

Regarding `CCOC(=O)c1c(C(F)(F)F)[n+]([O-])c2ccc(F)cc2[n+]1[O-]`, the Activity entry is recorded as “Non-toxic” with Salmonella typhimurium [1] and “Toxic” in the series on Salmonella typhimurium [2]. In series [3], the selectivity ratio came out at 0.1. The IC50 in the series with J774 turned out to be 0.5 µM; in the series with Trypanosoma cruzi [5], 3.3 µM. Besides, in the series with Trypanosoma cruzi [6], the inhibition of growth at 25 µM turned out to be 100%.

With `CC1CS(=O)(=O)CCN1/N=C/c1ccc([N+](=O)[O-])o1` (configuration not stated) [NIFURTIMOX], the selectivity ratio in [3] was found to be 41. Also, the IC50 with J774 came out at 316 µM. Moreover, the inhibition of growth at 25 µM in the series with Trypanosoma cruzi [6] came out at 100%.
